This note sets out measurements from a melting point compilation (Tetko et al.; mined from patent text by program, amines drawn as free bases though some values may be those of a salt).

SMILES strings stand for the structures.

On to `Cc1c(N2CC[C@@H](C3(NCCO)CC3)C2)c(F)cc2c(=O)c(C(=O)O)cn([C@@H]3C[C@@H]3F)c12`, for which the melting point fell in the range of 168 to 170 °C.
In the case of `COc1ccc(CCl)c(F)c1OC`, the melting point lay within 44.5 to 47.5 °C.
Molecule `CC1(C)CC(C)(C)c2cc(CC(=O)O)ccc21` displayed a melting point of 143 °C.
Under `CCCc1nc2c(C)cccc2n1Cc1ccc(-c2ccccc2-c2nnn[nH]2)nc1` stands 169 to 170 °C.
The molecule `CC(C)Nn1c(CO)nc2c(N)nc3cccnc3c21` displayed a melting point of 242 to 243 °C.
In turn, `OCc1ccc(-c2cc3c(NCc4cccc(Cl)c4)ncnc3[nH]2)cc1` had a melting point of 296 to 298 °C.
`CS(=O)(=O)c1ccc(-c2ccccc2Br)cc1` gave a melting point of 168 to 170 °C.
Molecule `CCN(C(=O)OC(C)(C)C)c1cnn(C(C)(C)C)c1Cl` showed a melting point of 50 to 52 °C.
Consider `ON=Cc1csc2ccccc12`, for which the melting point was in the range of 87 to 89 °C.
Next, `CC1(C)Oc2ccc(C#N)cc2C(Oc2cccnn2)C1(C)O` (stereo unspecified): 93 to 105 °C.
Under `CCOc1cc(=O)oc2cc(CBr)ccc12` stands 150 to 153 °C.
In turn, `CC(C)(C)OC(=O)CN1C(=O)[C@@H](N2C(=O)c3ccccc3C2=O)CSc2ccccc21` gave a melting point of 181 to 184 °C.
Under `CCOC(=O)CCc1cccc2c1Sc1cc(C#N)ccc1CC2` stands 61 to 62 °C; under `COc1cccc(-c2ccc3c(c2)C2(CCCCC2)C(=NOCc2ccccc2)N3)c1`, 101 to 104 °C.
Next, `O=C(O)COc1ccc(-c2ccc(-c3c(Cc4ccccc4)sc4ccccc34)cc2)cc1Br`: 150 to 152 °C.
In turn, `Nc1ccc2c(c1N)Cc1ccccc1-2` had a melting point of 240 to 243 °C.
As to `CCCC(C)N1CCC2(CC1)CSC1=C(O2)c2ccccc2C(=O)C1=O` (stereo unspecified), the melting point lay within 109 to 111 °C.
Under `COc1ccc(C=Nc2c3c(nc4ccccc24)CCCC3)cc1` stands 160 to 162 °C; under `COC(=O)c1ccc(Cc2c(OCc3ccc(-c4ccccc4-c4nnn[nH]4)cc3)cc(C)nc2C)cc1`, 144 to 145 °C.
`CC(C)(C)OC(=O)N(Cc1ncccc1C(N)=NO)C(=O)OC(C)(C)C` registered a melting point of 178 to 180 °C.
Turning to `CCCCCCCSc1nnc(N)s1`, the melting point lay within 112 to 113 °C.
Next, `Cc1nc(C2OC(CO)C(O)C2O)c(N)nc1OCc1ccccc1` (stereo unspecified): 152 to 153 °C; `COC(=O)N1C[C@@H]2CN(c3ccc(N4C[C@H](CNC(C)=O)OC4=O)cc3F)C[C@@H]2C1`: 128 to 132 °C; `CCN1C(=O)CN(c2ccccc2)C1=S`: 122 °C.
Next, `Cc1nnc(NC(=O)C(c2ccccc2)c2ccccc2)o1`: 160 to 161 °C; `COc1ccn2nc(-c3ccccc3F)c(-c3ccc(=O)n(C)n3)c2c1`: 220 to 222 °C.
Consider `CC(C)(C)Cn1c(=O)c(=O)[nH]c2cc([N+](=O)[O-])c(N)cc21`, for which the melting point was over 300 °C.
For the molecule `C[Si](C)(C)OC(Cn1ccnc1)(Cn1cncn1)c1ccc(F)cc1F` (stereo unspecified), the melting point was 87 to 89 °C.
Under `O=C(/C=C/c1ccccc1)Nc1cccc(F)c1` stands 110 °C; under `CCCC[C@H](NC(=O)[C@H](CC(C)C)NC(=O)c1c(F)cccc1F)C(=O)CSCc1ccco1`, 116 °C.
`OC(CCCN1CCCCC1)c1ccc2c(c1)Cc1cc(C(O)CCCN3CCCCC3)ccc1O2` (stereo unspecified) had a melting point of 145 to 146 °C.
In turn, `Cc1csc2ncc(C(O)CCc3ccccc3)n12` (stereo unspecified) returned a melting point of 144 to 145 °C.
In turn, `O=C(O)CC1(O)CCc2c([nH]c3ccccc23)C1=O` (stereo unspecified) had a melting point of 156 to 157 °C.
Next, `CN1C(=O)CC(c2ccccc2)C1C(O)c1ccc(C(=O)Nc2ccccc2)s1` (stereo unspecified): 223 to 227 °C.
Under `CCCCOCCOc1ccc(-c2ccc3c(c2)C=C(C(=O)Nc2ccc(S(=O)Cc4nccn4CCCC(=O)OCC)cc2)CCN3CC(C)C)cc1` (stereo unspecified) stands 134 to 136 °C.
Next, `CCCCCCCCOc1cc2cc(CO)c(CO)c(-c3ccnc(NN)c3)c2cc1OC`: 98 to 102 °C; `NC(=O)c1c(F)cc(NC2CCNCC2)cc1F`: 166 to 168 °C.
As for `Nc1ncnc2sc(CCO)c(-c3ccc(NC(=O)Nc4cccc(C(F)(F)F)c4)cc3)c12`, the melting point is 155 to 158 °C.
Consider `O=C(C=Cc1ccccc1Cl)Nc1cc(Cl)cc(Nc2noc3ccccc23)c1`, for which the melting point fell in the range of 133 to 135 °C.
Under `Cc1cn2c(n1)Cc1ccccc1NC2=O` stands 234 to 236 °C.
Next, `COC(=O)c1ccc(OCC2CC(=O)N(c3ccc(OS(C)(=O)=O)cc3)C2)cc1` (stereo unspecified): 111 to 113 °C; `CC(=O)NCCC1CCc2c(Cl)cc3nn(C)cc3c21` (stereo unspecified): 143 to 144 °C.
The molecule `O=C1Nc2cccc(I)c2C(=O)N2CCC[C@@H]12` gave a melting point of 212 to 215 °C.
For the molecule `CC1(C(=O)Nc2ccc(C3=NNC(=O)C4CC34)cc2)CC1` (stereo unspecified), the melting point is 253 to 255 °C.
As for `CN(C)C=CC(=O)c1ccc(Cl)c(S(=O)(=O)N=CN(C)C)c1`, the melting point was in the range of 204 to 206 °C.
For `O=C1CNc2ncc(I)cc2N1Cc1cc(F)c(F)cc1F`, the melting point was in the range of 227 to 228 °C.
Next, `O=C(C=C1CC(C(=O)O)Nc2cc(Cl)ccc21)Nc1ccccc1` (racemic): 118 to 120 °C; `CC(C)=NOCc1nc2c(N)nc(C)c(C)c2n1CCCCNC(=O)C(C)C`: 180 to 181 °C; `CCCN(c1ccncn1)n1cc(C)c2ccccc21`: 74 to 76 °C.
Regarding `O=Cc1ccc2c(c1)C1(c3ccccc3-2)c2ccccc2-c2ccc(C=O)cc21`, the melting point was over 300 °C.
The molecule `CCOc1ccccc1CNC(=O)[C@@H]1CCCN(c2cccc3c2C(=O)N(Cc2ccncc2)C3=O)C1` returned a melting point of 194 to 195 °C.
Consider `CCNCCCCCC(C)O` (stereo unspecified), for which the melting point was in the range of 37 to 38 °C.
The molecule `CCOC(=O)c1ncn2cc(Br)sc12` yielded a melting point of 171 to 172 °C.
`O=c1[nH]c(NCCc2c[nH]cn2)nc2c1ncn2C1CC(O)C(CO)O1` (stereo unspecified) had a melting point of 220 to 222 °C.
Next, `CC(=O)NS(=O)(=O)c1ccc(C2=C(c3ccccc3)C(=O)C(C)(C)O2)cc1Cl`: 194 to 195 °C.
Next, `ClCSc1ccccc1Br`: 28 to 30 °C; `O[C@H]1c2cc(OCc3cccnc3)ccc2OC[C@H]1Cc1cccnc1` (relative stereo): 145 to 147 °C.
Under `O=C(O)c1ncn2c1CSC2` stands 184 to 185 °C.
With `O=C(O)c1nc(C2CC2)nc(NCc2ccco2)c1Cl`, the melting point was 150 to 152 °C.
Next, `C=CC(=O)Nc1ccc2ncnc(Nc3ccc(OCc4ccccc4)cc3)c2c1`: 227 to 229 °C; `OCCCCCCCCCCCCCCCCN(CCO)CCO`: 67.6 to 68.8 °C.
Next, `Cc1nc2c(OCc3ccccc3)nccn2c1N`: 126 to 133 °C; `c1cnc2nc(-c3nccs3)ccc2c1`: 160 to 165 °C.
Regarding `COC(=O)c1cc2cccc(OC)c2cc1O`, the melting point amounted to 182 °C.
Under `CC(=O)N1CCc2c(S(=O)(=O)Cl)ccc(Cl)c2C1` stands 105 to 115 °C.
Under `C#CC1N(C(=O)Oc2ccccc2)c2ccc(OC)cc2C23OC12CCCC3=O` (stereo unspecified) stands 186 to 188 °C.

The melting point is the temperature of the solid-liquid transition.
